Data set [1] has as its system MOLT-3 cells. Description: CellTiter-Glo cell viability, 72 hours. The data set is classed as cell-based. The note with it: Homo sapiens. On the procedure:
(§1) AML cell lines used were: HL-60 (ATCC), SKM-1 (Sekisui XenoTech) and KG-1 (ATCC). Acute Lymphoid Leukemia (ALL) cell lines used were: CCRF-CEM (ATCC), MOLT-3 (ATCC), and Jurkat E6-1 (ATCC). […] After 24 hours, cells were dosed with CPX-351, venetoclax, azacitidine, decitabine, and/or cytarabine. CPX-351 and cytarabine were each dosed in a titration starting at 50 μM (for CPX-351, this was measured by its cytarabine content), with 8 additional serial dilutions of 5× each and a final group with no treatment. […] For the combination treatment of CPX-351 and venetoclax, the same titrations were used as in single-agent treatment. About 72 hours after dosing, cell viability was measured by CellTiter-Glo assay (Promega) according to manufacturer instructions; luminescence was measured and IC50 values were estimated by Cytation Multi-Mode reader (BioTek).
Background: Cellular ATP, detected with luciferase, serves as a proxy for viable cell number.

The test system of data set [2] is KG-1 cells. Description: CellTiter-Glo cell viability, 72 hours. To be noted: Homo sapiens. The data set is classed as cell-based. Here is the method:
as §1

For data set [3], the system named is Jurkat E6-1 cells. Description: CellTiter-Glo cell viability, 72 hours. The data set is classed as cell-based. To be noted: Homo sapiens. Here is the method: as §1
Data set [4] relates to HL-60 cells. Description: CellTiter-Glo cell viability, 72 hours. The data set is classed as cell-based. To be noted: Homo sapiens. Here is the method: as §1
For data set [5], the system named is SKM-1 cells. Description: CellTiter-Glo cell viability, 72 hours. The data set is classed as cell-based. The note with it: Homo sapiens. Here is the method: as §1
Data set [6] relates to CCRF-CEM cells. Kind of data set: CellTiter-Glo cell viability, 72 hours. The data set is classed as cell-based. To be noted: Homo sapiens, read-out: IC50 values. On the procedure:
as §1

The conditions of data set [7]: for Vp (Vp2), peripheral volume of distribution: population mean coefficient at BSA 1.95 (daunorubicin dose 86 mg), following CPX-351; for CLd (CLd2), distribution clearance: population mean coefficient at BSA 1.95, following CPX-351.
Data set [8] in a line: clinical. To be noted: human, in vivo, intravenous; for Vd: 195 mg.
The conditions of data set [9]: in vivo; cited from earlier work.
Data set [10] concerns the target T1, GCSF receptor (Homo sapiens, UniProt Q99062).
T1 sequence (Q99062 25-836): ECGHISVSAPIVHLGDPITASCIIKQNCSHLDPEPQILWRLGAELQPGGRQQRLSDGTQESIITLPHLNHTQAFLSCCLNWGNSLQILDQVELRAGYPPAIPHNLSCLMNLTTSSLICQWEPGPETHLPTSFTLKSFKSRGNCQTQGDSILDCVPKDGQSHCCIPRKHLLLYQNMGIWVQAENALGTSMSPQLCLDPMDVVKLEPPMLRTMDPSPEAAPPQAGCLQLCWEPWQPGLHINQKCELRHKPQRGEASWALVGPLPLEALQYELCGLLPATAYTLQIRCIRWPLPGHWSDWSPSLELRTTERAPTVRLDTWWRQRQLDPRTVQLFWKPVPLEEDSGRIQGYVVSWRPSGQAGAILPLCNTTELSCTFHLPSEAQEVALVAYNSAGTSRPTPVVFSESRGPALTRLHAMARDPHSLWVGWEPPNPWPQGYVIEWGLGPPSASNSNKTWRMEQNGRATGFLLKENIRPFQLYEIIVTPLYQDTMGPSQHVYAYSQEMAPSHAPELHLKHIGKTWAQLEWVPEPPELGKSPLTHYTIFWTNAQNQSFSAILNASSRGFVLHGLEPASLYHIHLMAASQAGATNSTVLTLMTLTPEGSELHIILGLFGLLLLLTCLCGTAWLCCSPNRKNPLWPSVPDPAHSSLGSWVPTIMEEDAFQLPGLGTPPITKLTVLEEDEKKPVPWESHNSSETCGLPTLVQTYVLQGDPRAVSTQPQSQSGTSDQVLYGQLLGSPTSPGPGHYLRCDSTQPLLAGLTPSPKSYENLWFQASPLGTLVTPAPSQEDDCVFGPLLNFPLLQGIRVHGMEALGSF
The note with it: population mean, cited from earlier work; for Kd: read-out: KD, equilibrium dissociation constant for GCSF and GCSF receptor.

The mark [11] stands for this setting: MOLT-3, ALL, CPX-351 by cytarabine content, read-out: IC50 values.
Setting [12] is: KG-1, AML, CPX-351 by cytarabine content, read-out: IC50 values.
Setting [13] is: Jurkat E6-1, ALL, CPX-351 by cytarabine content, read-out: IC50 values.
Where [14] appears, read: HL-60, HL60, AML, CPX-351 by cytarabine content, read-out: IC50 values.
[15] abbreviates: SKM-1, AML, CPX-351 by cytarabine content, read-out: IC50 values.
Where [16] appears, read: ALL, CPX-351 by cytarabine content.

A word on the IC50: it is the concentration that gives 50% inhibition. As usually defined, the clearance is the volume of plasma or blood freed of the substance per unit of time. The Vd is a proportionality between amount in the body and measured concentration, not a real space. A word on the Kd: it is the equilibrium constant for the complex coming apart.

Read-outs that look alike come from different tables or passages of the source.

Regarding `Nc1ncn([C@@H]2O[C@H](CO)[C@@H](O)[C@H]2O)c(=O)n1` [Azacitidine], the IC50 is 4030 nM in data set [1] (setting [11]); 4000 nM in data set [2] (setting [12]); 980 nM in [3] (setting [13]); 1420 nM in data set [4] (setting [14]); 420 nM in data set [5] (setting [15]); 1580 nM in [6] (setting [16]).

In the case of `Nc1ccn([C@@H]2O[C@H](CO)[C@@H](O)[C@@H]2O)c(=O)n1` [Cytarabine, 1-β-D-arabinofuranosylcytosine], in data set [7], the “Vp (Vp2), peripheral volume of distribution” value is 0.214 · (BSA/1.95)^1 L. For the same molecule, the “CLd (CLd2), distribution clearance” value in data set [7] is 0.00646 · (BSA/1.95)^1 L/h. Also, the clearance in [8] was 1.77 mL/min. The distribution volume (Vd) in data set [8] amounted to 5.12 L. Moreover, the half-inhibitory concentration (IC50) in data set [1] (setting [11]) was found to be 80 nM; in [2] (setting [12]) it was 240 nM; in [3] (setting [13]) it was 40 nM; in data set [4] (setting [14]), 850 nM; in data set [5] (setting [15]), 540 nM; in [6] (setting [16]), 30 nM.

On to `COc1cccc2c1C(=O)c1c(O)c3c(c(O)c1C2=O)C[C@@](O)(C(C)=O)C[C@@H]3O[C@H]1C[C@H](N)[C@H](O)[C@H](C)O1` [Daunorubicin], for which, in [7], the “Vp (Vp2), peripheral volume of distribution” value is recorded as 0.523 · (BSA/1.95)^1 · L and the “CLd (CLd2), distribution clearance” value is given as 0.0258 · (BSA/1.95)^1 L/h. In data set [8], this molecule gave a clearance of 2.42 mL/min and a Vd of 4.34 L.

For the molecule `Nc1ncn([C@H]2C[C@H](O)[C@@H](CO)O2)c(=O)n1` [Decitabine], the IC50 in data set [1] (MOLT-3, read-out: IC50 values) is 230 nM; in [2] (KG-1, read-out: IC50 values), 360 nM; in data set [3] (Jurkat E6.1, read-out: IC50 values), 100 nM; in data set [4] (HL-60, read-out: IC50 values) it was 820 nM; in data set [5] (SKM-1, read-out: IC50 values) it was 240 nM; in data set [6], 40 nM.

As to `CC1(C)CCC(CN2CCN(c3ccc(C(=O)NS(=O)(=O)c4ccc(NCC5CCOCC5)c([N+](=O)[O-])c4)c(Oc4cnc5[nH]ccc5c4)c3)CC2)=C(c2ccc(Cl)cc2)C1` [Venetoclax], the IC50 is 1000 nM in data set [1] (setting [11]); 2100 nM in data set [2] (setting [12]); 3500 nM in data set [3] (setting [13]); 50 nM in data set [4] (setting [14]); 1500 nM in data set [5] (setting [15]); 2800 nM in data set [6] (setting [16]).

B1: Filgrastim: exogenous GCSF agent (protein, UniProt P09919 31-207, looked up)
Granulocyte …: TPLGPASSLPQSFLLKCLEQVRKIQGDGAALQEKLVSECATYKLCHPEELVLLGHSLGIPWAPLSSCPSQALQLAGCLSQLHSGLFLYQGLLQALEGISPELGPTLDTLQLDVADFATTIWQQMEELGMAPALQPTQGAMPAFASAFQRRAGGVLVASHLQSFLEVSYRVLRHLAQP
modifications: filgrastim, N-terminal Met
notes: exogenous GCSF agent
Consider B1, for which, in data set [9], the “CL, clearance” value was 0.833 · (WTKG/70)^0.641 L/h; the “D2, duration of the zero-order absorption process” value is 6.6 h; the “F1, bioavailability of first-order absorption process” value is recorded as 0.105; the “F2, bioavailability of zero-order absorption process” value was 0.586. In data set [9], the “Vc, central volume of distribution” value was 3.12 · (WTKG/70)^0.943 L and the “ka, first-order absorption rate constant” value is 0.403 h⁻¹. For the same molecule, in data set [10], the “kint, first-order rate constant for internalization of GCSF receptor complexed with filgrastim or pegfilgrastim” value was 0.113 h⁻¹ and the Kd is 0.0237 nM.

B2: Pegfilgrastim: exogenous GCSF agent (protein, UniProt P09919 31-207, looked up)
Granulocyte …: B1 Granulocyte …
modifications: pegfilgrastim; PEGylated, N-terminal Met
notes: exogenous GCSF agent
B2: in data set [9], the “F1, bioavailability of first-order absorption process” value was 0.646; the “Vc, central volume of distribution” value is recorded as 5.76 · (WTKG/70)^0.943 L; the clearance is 6.03 mL/min; the “ka, first-order absorption rate constant” value is 0.0188 h⁻¹. In [10], the “kint, first-order rate constant for internalization of GCSF receptor complexed with filgrastim or pegfilgrastim” value is 0.113 h⁻¹ and the Kd was 0.0959 nM.
